The structures appear in SMILES notation.

By IC50 is commonly meant the concentration needed to halve the response being measured. Read a low IC50 as higher potency. As a reminder, the TGI is how far tumour growth fell short of that in controls. Low readings indicate a weaker effect on the tumour, high ones a stronger effect on the tumour.

One data set deals with RET (Homo sapiens, UniProt P07949). Nature of the data set: Kinase selectivity, Z'-LYTE.
The next data set has as its target Kit (Homo sapiens, UniProt P10721). Nature of the data set: Kinase selectivity, Z'-LYTE.
The nature of data set [1]: Effect on the body weight of mice in the allograft study. The data set is classed as in vivo, CB17-SCID female mice. As to conditions: four doses 6.25, 12.5, 25, 50 mg/kg oral once a day. How it is done:
(§1) After washed twice with normal saline, the cells were adjusted to a density of 1×10^7 cells/mL and placed on ice, and injected subcutaneously into the right axilla of CB17-SCID female mice (purchased from Viton Lever, Beijing, 6-8 weeks old) as soon as possible, with 200 μL each injection.
(§2) The control group was given the same volume of mixed solvent orally. Body weight and tumor volume were recorded every two days.

For data set [2], the system named is Ba/F3-CD74-TRKAG^667C allograft mouse model. Nature of the data set: In vivo antitumor efficacy, allograft mouse model. Also on record: species or system CB17-SCID female mice. To be noted: for TGI: after treatment for 12 days. How it is done: as §1, §2
Another data set deals with PDGFRA (Homo sapiens, UniProt P16234). Nature of the data set: Kinase selectivity, Z'-LYTE.
Sequence of PDGFRA (P16234 24-1089, species assumed): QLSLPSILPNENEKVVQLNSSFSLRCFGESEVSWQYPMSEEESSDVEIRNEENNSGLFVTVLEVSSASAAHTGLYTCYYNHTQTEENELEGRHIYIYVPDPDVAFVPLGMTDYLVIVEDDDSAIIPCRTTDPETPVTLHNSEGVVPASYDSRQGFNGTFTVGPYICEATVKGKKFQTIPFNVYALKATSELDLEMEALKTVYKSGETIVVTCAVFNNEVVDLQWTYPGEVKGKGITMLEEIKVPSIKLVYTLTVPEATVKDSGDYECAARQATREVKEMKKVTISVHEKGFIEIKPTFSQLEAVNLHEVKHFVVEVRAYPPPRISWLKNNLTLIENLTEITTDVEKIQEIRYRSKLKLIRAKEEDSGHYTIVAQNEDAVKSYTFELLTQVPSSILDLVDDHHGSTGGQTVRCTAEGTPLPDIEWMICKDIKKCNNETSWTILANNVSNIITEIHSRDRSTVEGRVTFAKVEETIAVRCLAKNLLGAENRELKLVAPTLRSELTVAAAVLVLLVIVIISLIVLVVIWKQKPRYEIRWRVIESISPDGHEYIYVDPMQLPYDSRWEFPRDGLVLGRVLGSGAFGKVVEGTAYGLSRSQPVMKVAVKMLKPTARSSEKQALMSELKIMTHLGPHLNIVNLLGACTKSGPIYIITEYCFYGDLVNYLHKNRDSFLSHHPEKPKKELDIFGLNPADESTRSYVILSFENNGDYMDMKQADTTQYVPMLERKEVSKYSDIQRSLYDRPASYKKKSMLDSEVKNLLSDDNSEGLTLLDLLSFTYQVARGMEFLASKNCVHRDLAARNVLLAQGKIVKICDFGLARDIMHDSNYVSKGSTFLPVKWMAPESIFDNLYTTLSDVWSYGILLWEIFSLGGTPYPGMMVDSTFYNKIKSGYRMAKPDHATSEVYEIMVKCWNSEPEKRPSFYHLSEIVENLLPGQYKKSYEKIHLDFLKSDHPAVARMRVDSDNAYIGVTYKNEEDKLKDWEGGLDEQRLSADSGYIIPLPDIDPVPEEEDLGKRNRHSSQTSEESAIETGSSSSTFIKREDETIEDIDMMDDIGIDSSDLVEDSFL
The target in another data set is Bcr-Abl (Homo sapiens, UniProt P00519). Nature of the data set: Kinase selectivity, Z'-LYTE.
Sequence of Bcr-Abl (P00519 242-493 limits assumed): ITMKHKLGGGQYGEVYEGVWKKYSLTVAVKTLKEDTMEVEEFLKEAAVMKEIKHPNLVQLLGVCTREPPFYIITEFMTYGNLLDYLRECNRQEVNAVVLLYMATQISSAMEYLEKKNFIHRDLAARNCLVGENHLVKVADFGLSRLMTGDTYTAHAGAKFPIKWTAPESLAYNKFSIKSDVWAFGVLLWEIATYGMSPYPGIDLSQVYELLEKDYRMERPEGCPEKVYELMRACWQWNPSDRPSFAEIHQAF
In the next data set the target is VEGFR2 (Homo sapiens, UniProt P35968). Nature of the data set: Kinase selectivity, Z'-LYTE.
Sequence of VEGFR2 (P35968 20-1356, species assumed): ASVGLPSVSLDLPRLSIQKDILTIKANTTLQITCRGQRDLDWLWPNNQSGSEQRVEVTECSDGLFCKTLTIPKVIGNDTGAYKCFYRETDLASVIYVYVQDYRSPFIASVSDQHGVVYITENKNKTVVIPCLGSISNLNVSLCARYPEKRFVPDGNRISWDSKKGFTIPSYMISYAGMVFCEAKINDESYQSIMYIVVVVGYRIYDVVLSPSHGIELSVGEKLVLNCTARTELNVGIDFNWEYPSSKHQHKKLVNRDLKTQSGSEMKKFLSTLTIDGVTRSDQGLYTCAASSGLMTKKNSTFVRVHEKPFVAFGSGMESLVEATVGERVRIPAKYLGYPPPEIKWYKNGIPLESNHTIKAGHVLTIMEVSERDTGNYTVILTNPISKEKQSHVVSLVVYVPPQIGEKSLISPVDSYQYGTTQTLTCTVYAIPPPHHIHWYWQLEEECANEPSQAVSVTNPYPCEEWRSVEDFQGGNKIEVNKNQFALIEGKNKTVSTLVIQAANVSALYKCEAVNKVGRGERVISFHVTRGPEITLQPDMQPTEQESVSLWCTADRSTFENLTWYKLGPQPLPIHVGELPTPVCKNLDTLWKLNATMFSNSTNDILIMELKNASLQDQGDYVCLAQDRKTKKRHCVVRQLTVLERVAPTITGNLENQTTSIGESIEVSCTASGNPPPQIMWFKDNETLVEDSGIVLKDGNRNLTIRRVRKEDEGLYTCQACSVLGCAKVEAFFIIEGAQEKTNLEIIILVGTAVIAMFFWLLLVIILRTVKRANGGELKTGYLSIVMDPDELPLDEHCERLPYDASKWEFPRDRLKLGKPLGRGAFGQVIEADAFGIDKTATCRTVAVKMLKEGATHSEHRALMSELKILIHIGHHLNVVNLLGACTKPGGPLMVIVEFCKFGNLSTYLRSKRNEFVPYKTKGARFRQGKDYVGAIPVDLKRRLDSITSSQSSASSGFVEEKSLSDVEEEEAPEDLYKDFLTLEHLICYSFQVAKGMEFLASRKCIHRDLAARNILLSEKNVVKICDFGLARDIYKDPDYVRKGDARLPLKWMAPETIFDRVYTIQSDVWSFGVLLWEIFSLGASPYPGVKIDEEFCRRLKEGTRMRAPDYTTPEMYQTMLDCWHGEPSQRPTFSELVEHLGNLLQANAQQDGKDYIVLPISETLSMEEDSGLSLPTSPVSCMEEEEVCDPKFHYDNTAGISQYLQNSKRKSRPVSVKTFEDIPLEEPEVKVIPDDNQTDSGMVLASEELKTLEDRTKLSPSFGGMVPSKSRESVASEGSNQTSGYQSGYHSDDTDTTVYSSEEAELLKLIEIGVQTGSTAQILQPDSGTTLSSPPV

Sequence of Kit (P10721 26-976, species assumed): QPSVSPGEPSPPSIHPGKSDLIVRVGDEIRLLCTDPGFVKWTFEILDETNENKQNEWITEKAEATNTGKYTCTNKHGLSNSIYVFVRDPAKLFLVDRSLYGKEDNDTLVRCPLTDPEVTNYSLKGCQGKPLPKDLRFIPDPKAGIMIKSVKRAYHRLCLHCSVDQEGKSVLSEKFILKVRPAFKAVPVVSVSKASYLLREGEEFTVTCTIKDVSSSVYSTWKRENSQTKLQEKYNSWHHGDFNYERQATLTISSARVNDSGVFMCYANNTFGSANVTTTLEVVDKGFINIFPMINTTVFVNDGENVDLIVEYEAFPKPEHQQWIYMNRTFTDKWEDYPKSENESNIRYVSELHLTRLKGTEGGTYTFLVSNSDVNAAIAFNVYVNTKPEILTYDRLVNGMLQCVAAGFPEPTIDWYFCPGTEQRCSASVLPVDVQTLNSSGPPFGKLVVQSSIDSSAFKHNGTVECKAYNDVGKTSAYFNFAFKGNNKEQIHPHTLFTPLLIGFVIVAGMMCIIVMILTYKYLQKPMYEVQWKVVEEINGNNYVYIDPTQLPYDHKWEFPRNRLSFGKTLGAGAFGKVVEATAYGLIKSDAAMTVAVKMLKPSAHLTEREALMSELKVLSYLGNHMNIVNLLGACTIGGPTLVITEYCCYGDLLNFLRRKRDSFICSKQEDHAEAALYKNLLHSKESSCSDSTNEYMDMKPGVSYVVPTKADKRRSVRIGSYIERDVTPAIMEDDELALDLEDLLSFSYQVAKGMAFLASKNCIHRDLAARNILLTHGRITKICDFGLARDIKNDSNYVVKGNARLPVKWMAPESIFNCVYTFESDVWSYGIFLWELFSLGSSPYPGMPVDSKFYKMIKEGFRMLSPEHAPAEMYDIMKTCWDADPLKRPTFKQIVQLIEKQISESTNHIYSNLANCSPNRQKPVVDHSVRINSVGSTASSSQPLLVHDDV
Sequence of RET (P07949 29-1114, species assumed): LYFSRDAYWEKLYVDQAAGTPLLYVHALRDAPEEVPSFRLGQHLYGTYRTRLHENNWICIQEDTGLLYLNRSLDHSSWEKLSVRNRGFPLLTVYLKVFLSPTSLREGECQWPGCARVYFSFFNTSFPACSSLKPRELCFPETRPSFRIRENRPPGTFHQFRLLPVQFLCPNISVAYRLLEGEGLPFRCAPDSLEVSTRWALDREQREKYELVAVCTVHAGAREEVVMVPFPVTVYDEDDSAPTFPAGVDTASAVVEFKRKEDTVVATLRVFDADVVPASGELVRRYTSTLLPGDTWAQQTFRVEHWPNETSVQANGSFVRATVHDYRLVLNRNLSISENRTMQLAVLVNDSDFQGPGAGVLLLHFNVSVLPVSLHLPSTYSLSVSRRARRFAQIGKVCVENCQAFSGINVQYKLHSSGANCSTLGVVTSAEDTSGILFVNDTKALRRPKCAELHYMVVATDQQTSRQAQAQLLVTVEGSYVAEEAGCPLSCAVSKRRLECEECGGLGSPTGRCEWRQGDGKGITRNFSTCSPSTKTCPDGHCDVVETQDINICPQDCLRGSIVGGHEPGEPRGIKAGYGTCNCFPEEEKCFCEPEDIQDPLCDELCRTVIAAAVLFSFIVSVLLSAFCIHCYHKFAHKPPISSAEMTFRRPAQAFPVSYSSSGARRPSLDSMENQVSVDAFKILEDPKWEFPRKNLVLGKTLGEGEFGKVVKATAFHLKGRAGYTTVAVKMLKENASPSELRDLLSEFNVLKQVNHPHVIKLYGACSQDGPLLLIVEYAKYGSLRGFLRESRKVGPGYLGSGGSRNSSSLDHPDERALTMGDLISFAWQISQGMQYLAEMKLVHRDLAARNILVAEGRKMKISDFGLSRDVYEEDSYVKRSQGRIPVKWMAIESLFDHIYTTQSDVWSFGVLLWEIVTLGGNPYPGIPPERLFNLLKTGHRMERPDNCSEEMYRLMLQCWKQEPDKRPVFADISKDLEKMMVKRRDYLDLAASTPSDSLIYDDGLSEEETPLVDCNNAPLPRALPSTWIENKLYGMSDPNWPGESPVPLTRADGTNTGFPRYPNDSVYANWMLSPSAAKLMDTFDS
Description for Bcr-Abl: (§3) Enzymatic reaction: In a 384-well plate, added 5 μL of enzyme-substrate system [50 mM 4-hydroxyethylpiperazineethanesulfonic acid (HEPES) pH 7.5, 0.01% BRIJ-35, 10 mM of magnesium chloride (MgCl2), 1 mM of ethylene glycol bis(2-aminoethyl ether)tetraacetic acid (EGTA), 2 μM of Tyr 01 peptide substrate], transferred 5 nL of compound (concentration gradient) using an Echo520 Ultra-Micro Liquid Pipetting System. […] Shaked and mixed, then centrifuged, and reacted at 30° C. in the dark for 1.5 hours.
Description for Kit: as §3
Description for PDGFRA: as §3
Description for RET: as §3
Description for VEGFR2: as §3

As for `Cc1c(C#Cc2cnc3ccc(N4CCC(O)CC4)nn23)cccc1C(=O)Nc1cc(Cl)cc(C(F)(F)F)c1` [XS3-55, N-(3-CHLORO-5-(TRIFLUOROMETHYL)PHENYL)-3-((6-(4-HYDROXYPIPERIDIN-1-YL)IMIDAZO[1,2-B]PYRIDAZINE-3-YL)ETHYNYL)-2-METHYLBENZAMIDE], the half-inhibitory concentration (IC50) was above 10 µM against RET; 1.67 µM at Kit; 5.89 µM on PDGFRA; above 10 µM on Bcr-Abl; 0.833 µM against VEGFR2. Besides, in data set [1], the “effect on mouse body weight” value was “no obvious adverse effect”. In addition, the tumour growth inhibition (TGI) in data set [2] (6.25 mg/kg/day oral) is given as 50.9%; in data set [2] (12.5 mg/kg/day oral), 76.3%; in data set [2] (25 mg/kg/day oral), 89.2%; in data set [2] (50 mg/kg/day oral), 91.6%. Also, the tumor size result in data set [2] (after 2 days of treatment at the lowest dose of 6.25 mg/kg, oral) is “Significant reductions in tumor size”.

Source of the values: US11834454B2, “Alkynylphenylbenzamide compounds and applications thereof” (SHENZHEN NEWDEL BIOTECH CO., LTD., priority 2021, dated 2023).
